Ends that are not written are not given here.
What was measured:
[1] = tested on: mouse tail fibroblast (MTF) cells; assay: siRNA cell-uptake assay and MFI (Cy5-conjugated siRNA, flow cytometry), Examples 14-16; assay type: cell-based
Protocol: As described above, the cell-uptake assay determines the number of cells that receive Cy5-conjugated siRNA when complexed with a peptide. siRNA cell-uptake was assessed by flow cytometry (refer to Example 2 for details). Uptake was expressed as a percentage calculated by dividing the number of cells containing Cy5-conjugated siRNA by the total number of transfected and untransfected cells in culture. Mean Fluorescence Intensity (MFI) was measured by flow cytometry and determined the amount of Cy5-conjugated siRNA found within cells. The MFI value directly correlates with the amount of Cy5-conjugated siRNA within the cell, thus, a higher MFI value indicates a greater number of Cy5-conjugated siRNA within the cells.
The siRNA cell-uptake assay and MFI measurements were performed as described previously in Examples 2 and 3. […]

[2] = in vitro; conditions: mouse, mouse tail fibroblast (MTF) cells
Protocol: Fluorescence activated cell sorting (FACS) analysis were performed using Beckman Coulter FC500 cell analyzer (Fullerton, Calif.). The instrument was adjusted according to the fluorescence probes used (FAM or Cy5 for siRNA and FITC and PE for CD14). Propidium iodide (Fluka, St Louis) and AnnexinV (R&D systems, Minneapolis) were used as indicators for cell viability and cytotoxicity. A brief step-by-step protocol is detailed below. • (a) After exposure to the complex of siRNA/peptide, cells were incubated for at least 3 hours. • (b) Wash cells with 200 μl PBS. • (c) Detach cells with 15 μl TE, incubate at 370 C. • (d) Re-suspend cells in five wells with 30 μl FACS solution (PBS with 0.5% BSA, and 0.1% sodium Azide). • (e) Combine all five wells into a tube. • (f) Add PI (Propidium iodide) 5 μl into each tube. • (g) Analyze the cells with fluorescence activated cell sorting (FCAS) according to manufacturer's instructions.
For siRNA uptake analysis, cells were washed with PBS, treated with trypsin (attached cells only), and then analyzed by flow cytometry. […] In order to differentiate the cellular uptake from the membrane insertion of fluorescence labeled siRNA, trypan blue was used to quench the fluorescence on the cell membrane surface.
FITC-tagged peptides were diluted in Opti-MEM® media (Invitrogen) for about 5 minutes at room temperature and then added to cells. Cells were transfected for 3 hours at and washed with PBS, treated with trypsin, and then analyzed by flow cytometry. Cell viability was determined as above. Cellular uptake was distinguished from the membrane insertion using trypan blue to quench any fluorescence on the cell membrane surface.

[3] = tested on: primary mouse tail fibroblast (MTF) cells; assay: Peptide cell-uptake assay (FITC-labeled peptide, flow cytometry); assay type: cell-based; conditions: for Peptide FITC MFI: relative values
Protocol: The efficacy of the full-length and truncated forms of polypeptide PN73 to enter cells was tested in vitro by a cell-uptake assay with primary mouse tail fibroblast (MTF) cells. The number of cells in culture that receive the FITC-labeled peptide was measured by flow cytometry. The percentage peptide cell-uptake was expressed relative to the total number of cells present in the culture. In addition, the Mean Fluorescence Intensity (MFI) was used to evaluate the quantity of FITC-labeled peptide found within cells. MFI directly correlates with the amount of FITC-labeled peptide within the cell: higher relative MFI value correlates with a greater amount of intracellular FITC-labeled peptides. Peptides were evaluated at 0.63 μM, 2.5 μM and 10 μM concentrations; PN768 was tested at 2 μM, 10 μM and 50 μM. […]

[4] = target: hTNF-α mRNA; assay: Knockdown of hTNF-α gene expression by siRNA/peptide complexes in LPS-stimulated human monocytes (branch DNA mRNA); assay type: cell-based; conditions: knockdown of hTNF-α mRNA vs Qneg; siRNAs A19S21, 21/21, LC20 at 20 nM; molar ratio 1 to 5; human monocytes
Protocol: Specifically, the ability of siRNA/peptide complexes to modulate expression of the human tumor necrosis factor-α (hTNF-α) gene was assessed. The significance of targeting the hTNF-α gene is that it is implicated in mediating the occurrence or progression of rheumatoid arthritis (RA) when over-expressed in human and other mammalian subjects.
Human monocytes were used as a model system to determine the effect of siRNA/peptide complexes on hTNF-α gene expression. Qneg represents a random siRNA sequence and functioned as the negative control. […] A19S21, 21/21 and LC20 are siRNAs that target hTNF-α mRNA.
Healthy human blood was purchased from Golden West Biologicals (CA), the peripheral blood mononuclear cells (PBMC) were purified from the blood using Ficoll-Pague plus (Amersham) gradient. Human monocytes were then purified from the PBMCs fraction using magnetic microbeads from Miltenyi Biotech. Isolated human monocytes were resuspended in IMDM supplemented with 4 mM glutamine, 10% FBS, 1× non-essential amino acid and 1× pen-strep, and stored at 4 C until use.
In a 96 well flat bottom plate, human monocytes were seeded at 100 K/well/100 μl in OptiMEM medium (Invitrogen). Exemplary polynucleotide delivery-enhancing polypeptides were mixed with 20 nM siRNA at a molar ratio of 1 to 5 in OptiMEM medium at room temperature for 5 minutes. At the end of incubation, FBS was added to the mixture (final 3%), and 50 μl of the mixture was added to the cells. The cells were incubated at 37° C. for 3 hours. After incubation, the cells were transferred to V-bottom plate and pelleted at 1500 rpm for 5 min. The cells were resuspended in growth medium (IMDM with glutamine, non-essential amino acid, and pen-strep). After an overnight incubation, the monocytes were stimulated by application of LPS (Sigma) at 1 ng/ml for 3 hours to increase expression of TNF-α expression levels. After induction by LPS, cells were collected as above for mRNA quantification, and supernatant was saved for protein quantification if desired.
For mRNA measurement, branch DNA technology from Genospectra (CA) was used according to manufacturer's specification. To quantitate mRNA level in the cells, both house keeping gene (cypB) and target gene (TNF-α) mRNA were measured, and the reading for TNF-α was normalized with cypB to obtain relative luminescence unit. […]

[5] = PN73 mutant series, peptide 0.63 μM
[6] = PN73 mutant series, peptide 1.25 μM
[7] = PN73 mutant series, peptide 2.5 μM
[8] = PN73 mutant series, peptide 5 μM

Compound: CC(C)C[C@H](NC(=O)[C@@H](NC(=O)[C@H](CCCCN)NC(=O)[C@H](Cc1ccc(O)cc1)NC(=O)[C@@H](NC(=O)[C@H](Cc1ccc(O)cc1)NC(=O)[C@@H](NC(=O)[C@H](CO)NC(=O)[C@H](Cc1ccc(O)cc1)NC(=O)[C@H](CO)NC(=O)[C@H](Cc1c[nH]c2ccccc12)NC(=O)[C@H](CCCCN)NC(=O)[C@H](CCCNC(=N)N)NC(=O)[C@H](CO)NC(=O)[C@H](CCCNC(=N)N)NC(=O)[C@H](CCCCN)NC(=O)[C@H](CCCNC(=N)N)NC(=O)[C@H](CCCCN)NC(=O)[C@H](CCCCN)NC(=O)CNC(=O)[C@H](CC(=O)O)NC(=O)[C@H](CCCCN)NC(=O)[C@H](CCCCN)NC(=O)[C@H](CCC(N)=O)NC(=O)[C@H](C)NC(=O)[C@H](CCCCN)NC(=O)[C@@H](NC(=O)[C@@H](NC(=O)[C@H](C)NC(=O)[C@H](CCCCN)NC(=O)[C@H](CCCCN)NC(=O)[C@H](CO)NC(=O)CNC(=O)[C@@H](N)CCCCN)C(C)C)[C@@H](C)O)C(C)C)C(C)C)C(C)C)C(=O)N[C@@H](CCCCN)C(=O)N[C@@H](CCC(N)=O)C(N)=O [PN645]
- % siRNA Cell-Uptake [1, 5]: 68%
- siRNA Cy5 MFI [1, 5]: 5
- % siRNA Cell-Uptake [1, 6]: 70%
- siRNA Cy5 MFI [1, 6]: 11
- % siRNA Cell-Uptake [1, 7]: 78%
- siRNA Cy5 MFI [1, 7]: 21
- % siRNA Cell-Uptake [1, 8]: 88%
- siRNA Cy5 MFI [1, 8]: 28
- viability at 0.63 µM [2]: 84%
- viability at 1.25 µM [2]: 89%
- viability at 2.5 µM [2]: 90%
- viability at 5 µM [2]: 90%

Compound: VYVYKVLKQ-GK[EPSILON-5CFG-amide (VYVYKVLKQG-{K(5CF)-Gly-NH2}) [PN652]
- % Peptide Cell-Uptake ([3]; peptide 10 μM): 86 (10 μM) %
- Peptide FITC MFI ([3]; peptide 10 μM): 5 (10 μM)
- % siRNA Cell-Uptake ([1]; peptide 10 μM): 1.8 (10 μM) %
- siRNA Cy5 MFI ([1]; peptide 10 μM, relative values): 5 (10 μM)

Compound: SYSVYVYKVLKQ-GK[EPSILON-5CFG-amide (SYSVYVYKVLKQG-{K(5CF)-Gly-NH2}) [PN653]
- % Peptide Cell-Uptake ([3]; peptide 10 μM): 95 (10 μM) %
- Peptide FITC MFI ([3]; peptide 10 μM): 8 (10 μM)
- % siRNA Cell-Uptake ([1]; peptide 10 μM): 1.7 (10 μM) %
- siRNA Cy5 MFI ([1]; peptide 10 μM, relative values): 4 (10 μM)
- KD [4]: −

Compound: KGSFKAVTKAQKKDGKKRKRSFKFSYSVYVYKVLKQ-NH2 [PN647]
- % siRNA Cell-Uptake [1, 5]: 71%
- siRNA Cy5 MFI [1, 5]: 13
- % siRNA Cell-Uptake [1, 6]: 74%
- siRNA Cy5 MFI [1, 6]: 34
- % siRNA Cell-Uptake [1, 7]: 83%
- siRNA Cy5 MFI [1, 7]: 39
- % siRNA Cell-Uptake [1, 8]: 85%
- siRNA Cy5 MFI [1, 8]: 41
- viability at 0.63 µM [2]: 85%
- viability at 1.25 µM [2]: 83%
- viability at 2.5 µM [2]: 88%
- viability at 5 µM [2]: 87%

Compound: CC(C)C[C@H](NC(=O)[C@@H](NC(=O)[C@H](CCCCN)NC(=O)[C@H](Cc1ccc(O)cc1)NC(=O)[C@@H](NC(=O)[C@H](Cc1ccc(O)cc1)NC(=O)[C@@H](NC(=O)[C@H](Cc1c[nH]c2ccccc12)NC(=O)[C@H](Cc1ccc(O)cc1)NC(=O)[C@H](CO)NC(=O)[C@H](CCC(=O)O)NC(=O)[C@H](CCCCN)NC(=O)[C@H](CCCNC(=N)N)NC(=O)[C@H](CO)NC(=O)[C@H](CCCNC(=N)N)NC(=O)[C@H](CCCCN)NC(=O)[C@H](CCCNC(=N)N)NC(=O)[C@H](CCCCN)NC(=O)[C@H](CCCCN)NC(=O)CNC(=O)[C@H](CC(=O)O)NC(=O)[C@H](CCCCN)NC(=O)[C@H](CCCCN)NC(=O)[C@H](CCC(N)=O)NC(=O)[C@H](C)NC(=O)[C@H](CCCCN)NC(=O)[C@@H](NC(=O)[C@@H](NC(=O)[C@H](C)NC(=O)[C@H](CCCCN)NC(=O)[C@H](CCCCN)NC(=O)[C@H](CO)NC(=O)CNC(=O)[C@@H](N)CCCCN)C(C)C)[C@@H](C)O)C(C)C)C(C)C)C(C)C)C(=O)N[C@@H](CCCCN)C(=O)N[C@@H](CCC(N)=O)C(N)=O [PN644]
- % siRNA Cell-Uptake [1, 5]: 67%
- siRNA Cy5 MFI [1, 5]: 4
- % siRNA Cell-Uptake [1, 6]: 71%
- siRNA Cy5 MFI [1, 6]: 8
- % siRNA Cell-Uptake [1, 7]: 70%
- siRNA Cy5 MFI [1, 7]: 24
- % siRNA Cell-Uptake [1, 8]: 83%
- siRNA Cy5 MFI [1, 8]: 37
- viability at 0.63 µM [2]: 88%
- viability at 1.25 µM [2]: 90%
- viability at 2.5 µM [2]: 86%
- viability at 5 µM [2]: 87%

Compound: CC(C)C[C@H](NC(=O)[C@@H](NC(=O)[C@H](CCCCN)NC(=O)[C@H](Cc1ccc(O)cc1)NC(=O)[C@@H](NC(=O)[C@H](Cc1ccc(O)cc1)NC(=O)[C@@H](NC(=O)[C@H](CO)NC(=O)[C@H](Cc1ccc(O)cc1)NC(=O)[C@H](CO)NC(=O)[C@H](Cc1ccccc1)NC(=O)[C@H](CCCCN)NC(=O)[C@H](CCCNC(=N)N)NC(=O)[C@H](CO)NC(=O)[C@H](CCCNC(=N)N)NC(=O)[C@H](CCCCN)NC(=O)[C@H](CCCNC(=N)N)NC(=O)[C@H](CCCCN)NC(=O)[C@H](CCCCN)NC(=O)CNC(=O)[C@H](CC(=O)O)NC(=O)[C@H](CCCCN)NC(=O)[C@H](CCCCN)NC(=O)[C@H](CCC(N)=O)NC(=O)[C@H](C)NC(=O)[C@H](CCCCN)NC(=O)[C@@H](NC(=O)[C@@H](NC(=O)[C@H](C)NC(=O)[C@H](CCCCN)NC(=O)[C@H](CCCCN)NC(=O)[C@H](CO)NC(=O)CNC(=O)[C@@H](N)CCCCN)C(C)C)[C@@H](C)O)C(C)C)C(C)C)C(C)C)C(=O)N[C@@H](CCCCN)C(=O)N[C@@H](CCC(N)=O)C(N)=O [PN646]
- % siRNA Cell-Uptake [1, 5]: 67%
- siRNA Cy5 MFI [1, 5]: 4
- % siRNA Cell-Uptake [1, 6]: 70%
- siRNA Cy5 MFI [1, 6]: 10
- % siRNA Cell-Uptake [1, 7]: 73%
- siRNA Cy5 MFI [1, 7]: 24
- % siRNA Cell-Uptake [1, 8]: 88%
- siRNA Cy5 MFI [1, 8]: 24
- viability at 0.63 µM [2]: 81%
- viability at 1.25 µM [2]: 85%
- viability at 2.5 µM [2]: 87%
- viability at 5 µM [2]: 92%

Compound: KGSFKAVTKAQKKFGKKRKRSRKSFSVYVYKVLKQ-NH2 [PN729]
- % siRNA Cell-Uptake [1, 5]: 61%
- siRNA Cy5 MFI [1, 5]: 4
- % siRNA Cell-Uptake [1, 6]: 69%
- siRNA Cy5 MFI [1, 6]: 10
- % siRNA Cell-Uptake [1, 7]: 79%
- siRNA Cy5 MFI [1, 7]: 16
- % siRNA Cell-Uptake [1, 8]: 86%
- siRNA Cy5 MFI [1, 8]: 30
- viability at 0.63 µM [2]: 82%
- viability at 1.25 µM [2]: 91%
- viability at 2.5 µM [2]: 92%
- viability at 5 µM [2]: 90%

Compound: KVLKQ-GK[EPSILON-5CFG-amide [PN768]
- % Peptide Cell-Uptake ([3]; peptide 50 µM): 91 (50 µM) %
- Peptide FITC MFI ([3]; peptide 50 μM): 9 (50 μM)

Compound: YKVLKQ-GK[EPSILON-5CFG-amide [PN651]
- % Peptide Cell-Uptake ([3]; peptide 10 μM): 90 (10 μM) %
- Peptide FITC MFI ([3]; peptide 10 μM): 5 (10 μM)
- % siRNA Cell-Uptake ([1]; no peptide concentration printed): 0%
- siRNA Cy5 MFI ([1]; peptide .65 μM, relative values): 3 (.65 μM)
